Consider two compounds from paper PMC10137255, “Disturbing the Redox Balance Using Buthionine Sulfoximine Radiosensitized Somatostatin Receptor-2 Expressing Pre-Clinical Models to Peptide Receptor Radionuclide Therapy with ^177Lu-DOTATATE” (Cancers, 2023).

The test system of data set [1] is total glutathione in HBL cells. The data set is described as follows: Total glutathione quantification, HBL. In kind it is cell-based, human. Conditions: 10^−7 M BSO for 18 h, vs non-treated, mean ± SEM, n = 6 from 2 independent experiments. Here is the method:
(§1) Total glutathione was assessed in cell lines and mice tissues using the Quantification kit for oxidized and reduced glutathione (Sigma), according to the manufacturer’s instructions. Cells in culture were harvested, washed and then lysed with freeze-thaw cycles and subsequently mixed with 5% 5-sulfosalicylic acid. After centrifugation at 8000× g for 10 min, the supernatant was collected, and the 5-sulfosalicylic acid concentration was reduced to 0.5% with water for glutathione quantification. Tumour, liver and kidneys were harvested, snap-frozen in liquid nitrogen and stored at −70 °C until assayed for glutathione. Tissues were homogenized in 5% 5-sulfosalicylic acid in lysing matrix D tubes (MP Biomedicals) containing ceramic beads using a FastPrep-24 homogenizer (MP Biomedicals, Irvine, CA, USA) and centrifuged at 8000× g for 10 min. The supernatant was collected, and the 5-sulfosalicylic acid concentration was reduced to 0.5% with water for glutathione quantification. The buffer solution was added to samples (either from cell lines or tissues) (in triplicates) in a 96-well plate. […] Absorbance was read at 405 nm using a microplate reader (Thermo Labsystems Multiskan EX, ThermoFisher, Waltham, MA, USA). Total glutathione concentration was determined using a calibration curve.

The test system of data set [2] is total glutathione in MM162 cells. The data set is described as follows: Total glutathione quantification, MM162. In kind it is cell-based, human. Conditions: 10^−7 M BSO for 18 h, vs non-treated, mean ± SEM, n = 6 from 2 independent experiments. The protocol: as §1
Data set [3] relates to total glutathione in COLO-677 cells. Kind of data set: Total glutathione quantification, COLO-677. In kind it is cell-based, human. Conditions: 10^−7 M BSO for 18 h, vs non-treated, n = 6 from 2 independent experiments. The protocol:
as §1

Data set [4] concerns total glutathione in EJM cells. Kind of data set: Total glutathione quantification, EJM. The data set is classed as cell-based, human. The note with it: 10^−7 M BSO for 18 h, vs non-treated, mean ± SEM, n = 6 from 2 independent experiments. Here is the method:
as §1

In data set [5] the test system is total glutathione in MIA-PACA-2 cells. Kind of data set: Total glutathione quantification, MIA-PACA-2. The data set is classed as cell-based, human. The note with it: 10^−7 M BSO for 18 h, vs non-treated, mean ± SEM, n = 6 from 2 independent experiments. Here is the method:
as §1

Data set [6] has as its system total glutathione in HT-29 cells. The data set is described as follows: Total glutathione quantification, HT-29. The note with it: 10^−7 M BSO for 18 h, vs non-treated, n = 6 from 2 independent experiments. The data set is classed as cell-based, human. Here is the method:
as §1

The subject of data set [7] is total glutathione in EJM tumours. Kind of data set: Total glutathione in EJM tumours. The data set is classed as in vivo, mouse. The note with it: BSO 10 mM via drinking water (2 mmol/kg/day), summary in discussion. The protocol:
(§2) Mice experiments were approved by the animal ethics committee of Université Libre de Bruxelles (Comité d’Ethique du Bien-Etre Animal (CEBEA)) and performed according to European guidelines. Female athymic nude Foxn1^nu mice (Charles River) (age = 5 to 6 weeks) were subcutaneously injected in the right flank with 1 × 10^6 EJM cells suspended in 100 µL of PBS and matrigel (1:1; Cultrex™ Basement Membrane Extract, Type 3, R&D Systems). The tumours were allowed to grow for 4 weeks before initiating treatments. At a tumour size of approximately 0.5 cm^3, mice were randomized into 4 treatment groups of 10 mice: control, ^177Lu-DOTATATE, BSO and ^177Lu-DOTATATE + BSO. […] All mice were monitored three times a week for body weight and tumour growth using a calliper. Tumour volume (mm^3) was calculated using the formula π/6 × length × width × height. The relative tumour volume was represented and calculated as (tumour volume on measured day)/(tumour volume measured at baseline). […] Another group of mice receiving ^177Lu-DOTATATE alone or in combination with BSO was sacrificed 24, 72 and 168 h post-injection (p.i.) for ex vivo biodistribution studies and early glutathione quantification (4 mice per group per time point) (Figure 1).

Data set [8] in a line: Water intake and tolerability in mice. Conditions: EJM xenograft nude mice; BSO 10 mM in drinking water; 30 MBq 177Lu-DOTATATE IV. The protocol: as §2
The subject of a further data set is kidneys. The data set is described as follows: H&E staining of kidneys. Conditions: mouse, in vivo. Here is the method: (§3) Liver and kidneys were harvested, fixed in PAXgene Tissue FIX (Qiagen, Hilden, Germany) for 1 day at room temperature and kept at 4 °C in PAXgene Tissue STABILIZER (Qiagen) until they were embedded in paraffin for histological studies. Staining was carried out on 4 μm paraffin-embedded tissue sections subsequently deparaffinized in xylene and rehydrated in decreasing alcohol concentrations. Slides were incubated in Mayer’s hematoxylin for 6 min and subsequently in eosin for 3 min. Slides were mounted using Tissue-Tek Prisma (Sakura, Alphen aan den Rijn, The Netherlands). Digital scans of slides were acquired with Nanozoomer NDP (Hamamatsu Photonics, Shizuoka, Japan) and analysed by an experienced clinical pathologist.

Another data set relates to liver. The data set is described as follows: H&E staining of liver. The note with it: mouse, in vivo. The protocol: as §3
The test system of data set [9] is EJM multiple myeloma xenograft. The data set is described as follows: Tumour growth (calliper), EJM xenograft. The note with it: 30 MBq 177Lu-DOTATATE IV day 28 and/or 10 mM BSO drinking water 3 weeks, exponential growth fit, [95% CI], 8 to 10 mice per group. The data set is classed as in vivo, mouse. Here is the method: as §2
The test system of a further data set is HBL melanoma cell line. Conditions: 5 MBq 177Lu-DOTATATE for 4 h and/or BSO 10^−7 M from the day before irradiation until day 10, crystal violet day 10, % of non-treated, mean ± SEM, n = 12 from 3 independent experiments.
The next data set has as its system MM162 melanoma cell line. Conditions: 5 MBq 177Lu-DOTATATE for 4 h and/or BSO 10^−7 M from the day before irradiation until day 10, crystal violet day 10, % of non-treated, mean ± SEM, n = 12 from 3 independent experiments.
For data set [10], the system named is COLO-677 multiple myeloma cell line. The note with it: 5 MBq 177Lu-DOTATATE for 4 h and/or BSO 10^−7 M from the day before irradiation until day 10, crystal violet day 10, % of non-treated, mean ± SEM, n = 12 from 3 independent experiments.
Data set [11] concerns EJM multiple myeloma cell line. Conditions: 5 MBq 177Lu-DOTATATE for 4 h and/or BSO 10^−7 M from the day before irradiation until day 10, crystal violet day 10, % of non-treated, mean ± SEM, n = 12 from 3 independent experiments.
Data set [12] concerns MIA-PACA-2 pancreatic adenocarcinoma cell line. The note with it: 5 MBq 177Lu-DOTATATE for 4 h and/or BSO 10^−7 M from the day before irradiation until day 10, crystal violet day 10, % of non-treated, mean ± SEM, n = 12 from 3 independent experiments.
Data set [13] has as its system HT-29 colon adenocarcinoma cell line. Conditions: 5 MBq 177Lu-DOTATATE for 4 h and/or BSO 10^−7 M from the day before irradiation until day 10, crystal violet day 10, % of non-treated, mean ± SEM, n = 12 from 3 independent experiments.
For data set [14] the following is noted: cited from earlier work. Here is the method: The optimal combination treatment schedule would still have to be determined, which would be the one allowing the use of the minimal effective dose of BSO, i.e., the dose necessary to achieve sufficient tumour GSH depletion to have an efficient tumour radiosensitization, without excessive healthy tissue toxicity. The rapid clearance of BSO (estimated half-life in plasma of less than 2 h) and the rapid rate of GSH turnover would allow one to closely control GSH levels with BSO and allow for a GSH depletion only during tumour irradiation with ^177Lu-DOTATATE, limiting the potential ...

On the set-up of data set [15]: method as in PMID 27092812, PMID 8270977, PMID 8558205, PMID 9392620. Conditions: early-phase clinical studies on solid tumours; cited from earlier work.
A further data set deals with EJM xenograft mice. Kind of data set: Ex vivo biodistribution and time-activity curves. The data set is classed as in vivo, mouse. The note with it: 30 MBq 177Lu-DOTATATE IV ± 10 mM BSO via drinking water, single exponential fit of time-activity curve, n = 1 to 6 mice per group. Here is the method: as §2
In data set [16] the test system is bone marrow. The data set is described as follows: Bone marrow apoptosis assessment (Annexin V/7-AAD). In kind it is in vivo, mouse. Conditions: mice sacrificed 29 to 38 days post-177Lu-DOTATATE injection; Annexin V/7-AAD flow cytometry; mean ± SEM; 3 to 4 mice per group. The protocol:
At the time of sacrifice, bone marrow (BM) was harvested from both femurs (containing hematopoietically active marrow) of the animals. Femurs were excised from each mouse, and then the attached muscle was trimmed from the periosteal surface and the bone was opened at the distal end. BM was isolated using the cytocentrifuge method. In brief, the femur was placed in a 0.5 mL Eppendorf tube pre-punctured with a needle at the base of the tube to form an opening. The 0.5 mL tube was nested within a 1.5 mL Eppendorf tube, and both were centrifuged at 10,000 rpm for 15 s to form a BM pellet at the bottom of the 1.5 mL Eppendorf tube yet to retain the femur within the 0.5 mL tube. • Bone marrow smears and cytological assessment. BM samples were assayed for apoptosis. A 10 min incubation step at 37 °C with NH4Cl was performed for red blood cell lysis. Samples were then centrifuged for 5 min, and the supernatant containing lysed red blood cells was discarded. Samples were then incubated with Annexin-V Binding Buffer (ThermoFisher, Waltham, MA, USA), Annexin V (BD Biosciences, Franklin Lakes, NJ, USA) and 7-AAD (BD Biosciences, Franklin Lakes, NJ, USA) for 15 min at room temperature. Annexin Buffer was added to samples that were subsequently analysed using a MACSQuant Analyzer 10 Flow Cytometer (Miltenyi Biotec, Bergisch Gladbach, Germany).
(In flow cytometry, cells or beads pass a laser one at a time.)

In data set [17] the test system is bone marrow. Kind of data set: Bone marrow smears and cytological assessment. In kind it is in vivo, mouse. The note with it: 29 to 38 days p.i. The protocol: At the time of sacrifice, bone marrow (BM) was harvested from both femurs (containing hematopoietically active marrow) of the animals. Femurs were excised from each mouse, and then the attached muscle was trimmed from the periosteal surface and the bone was opened at the distal end. BM was isolated using the cytocentrifuge method. In brief, the femur was placed in a 0.5 mL Eppendorf tube pre-punctured with a needle at the base of the tube to form an opening. The 0.5 mL tube was nested within a 1.5 mL Eppendorf tube, and both were centrifuged at 10,000 rpm for 15 s to form a BM pellet at the bottom of the 1.5 mL Eppendorf tube yet to retain the femur within the 0.5 mL tube. • Bone marrow smears and cytological assessment.
BM smears were prepared using the push-slide technique. In brief, one drop of BM was placed at one extremity of a glass slide and was then spread in an even film using a second glass slide (held at an angle) as a spreader. The spreader slide was slid forward the length of the slide to produce a smear. Slides were fixed in absolute methanol for 5 min and then air-dried. May-Grunwald–Giemsa staining was used for routine evaluation of BM cytomorphology. […] A qualitative and quantitative cytological evaluation of all the major lineages was performed by an experienced clinical pathologist on 300 to 500 cells. • Bone marrow apoptosis assessment.

Where “and” joins values, the source holds several entries; their conditions need not be identical. Equal values may be shown once.

`CCCCS(=N)(=O)CC[C@H](N)C(=O)O` (stereo partly drawn) [BSO, L-Buthionine-(S,R)-Sulfoximine]: the “change in total glutathione levels” value is listed as −21.5 ± 3.0% in [1]; −11.1 ± 3.7% in [2]; “not affected” in data set [3]; −9.4 ± 2.2% in [4]; −20.7 ± 3.5% in data set [5]; “not affected” in data set [6]. The “tumour GSH depletion” value in data set [7] is on record as ~ 80%. In addition, the water intake in data set [8] is 5.6 ± 0.6 mL/day/mouse. Further, the “kidney histology (H&E)” value in the data set on kidneys is given as “No morphological changes were observed”. In addition, the “liver histology (H&E)” value in the data set on liver is “No morphological changes were observed”. Also, in [9], the Tumour doubling time was 7.5 days and 7.5 [6.3 – 9.1] days. The cell survival with HBL melanoma cell line was 81.2 ± 3.8%; in the data set on MM162 melanoma cell line, “did not affect cell lines survival”; in [10], “did not affect cell lines survival”; in [11] it was “did not affect cell lines survival”; in [12], 87.6 ± 3.8%; in data set [13], “did not affect cell lines survival”. In data set [14], the “estimated half-life in plasma” value is reported as “less than 2 h”. Moreover, the “adverse events caused by BSO alone” value in [15] was “only grade 1–2 nausea and vomiting”.

In the case of `C[C@@H](O)[C@H](NC(=O)[C@@H]1CSSC[C@H](NC(=O)[C@@H](Cc2ccccc2)NC(=O)CN2CCN(CC(=O)O)CCN(CC(=O)O)CCN(CC(=O)O)CC2)C(=O)N[C@@H](Cc2ccc(O)cc2)C(=O)N[C@H](Cc2c[nH]c3ccccc23)C(=O)N[C@@H](CCCCN)C(=O)N[C@@H]([C@@H](C)O)C(=O)N1)C(=O)O` [^177Lu-DOTATATE, metal not drawn], in the data set on EJM xenograft mice, the “effective half-life in the kidneys” value is 13.7 h and the “effective half-life in the liver” value was 24 h. The water intake in data set [8] is 5.2 ± 0.5 mL/day/mouse. The compound further showed a BM apoptotic cells with bone marrow [16] of 33.0 ± 2.8%. In addition, the “relative proportion of BM lineages (erythroid, granulocytic, lymphoid), between treatment groups” value in the data set on bone marrow [17] (BM smears, May-Grunwald–Giemsa, 3 to 4 mice per group) is recorded as “no significant differences”. The “qualitative assessment of BM smears (morphology)” value in the data set on bone marrow [17] (major BM lineages including megakaryocytes) was “did not show any morphological abnormalities”. For the same compound, the “kidney histology (H&E)” value with kidneys is on record as “No morphological changes were observed”. Also, the “liver histology (H&E)” value in the data set with liver was “No morphological changes were observed”.
